Experimental data from the NIST ThermoML archive (doi:10.1021/je400821q).
Numbers after ± are expanded uncertainties.

Assay: osmotic coefficient (dimensionless); mn = molality of the nth substance listed, in mol/kg
Details: 308.15 K, Liquid, Osmomat K-7000

C[N+](C)(C)C.[Cl-] [tetramethylammonium chloride] + O
Details	osmotic coefficient
m1 = 0.01861	0.9937 ± 0.001
m1 = 0.03679	0.9747 ± 0.0013
m1 = 0.05507	0.958 ± 0.0018
m1 = 0.07403	0.9487 ± 0.0021
m1 = 0.09359	0.9393 ± 0.0024
m1 = 0.1112	0.9297 ± 0.0027
m1 = 0.1397	0.9173 ± 0.0032
m1 = 0.1877	0.8997 ± 0.0039
m1 = 0.2352	0.8878 ± 0.0043
m1 = 0.284	0.8757 ± 0.0048
m1 = 0.333	0.8675 ± 0.0051

C[N+](C)(C)C.[Br-] [tetramethylammonium bromide] + O
Details	osmotic coefficient
m1 = 0.01285	0.9931 ± 0.001
m1 = 0.02557	0.9742 ± 0.0014
m1 = 0.03787	0.9583 ± 0.0018
m1 = 0.0549	0.948 ± 0.0021
m1 = 0.06504	0.94 ± 0.0023
m1 = 0.07726	0.9311 ± 0.0027
m1 = 0.0956	0.9195 ± 0.0031
m1 = 0.1326	0.8936 ± 0.0041
m1 = 0.1678	0.8796 ± 0.0047
m1 = 0.203	0.8696 ± 0.0051
m1 = 0.2383	0.8623 ± 0.0053
m1 = 0.3083	0.8489 ± 0.0059

CCCC[N+](CCCC)(CCCC)CCCC.[Br-] [tetrabutylammonium bromide] + O
Details	osmotic coefficient
m1 = 0.00627	0.9763 ± 0.0013
m1 = 0.0125	0.9517 ± 0.002
m1 = 0.02562	0.9279 ± 0.0028
m1 = 0.03159	0.9191 ± 0.0031
m1 = 0.03774	0.9126 ± 0.0034
m1 = 0.04597	0.9006 ± 0.0039
m1 = 0.06502	0.8805 ± 0.0046
m1 = 0.07496	0.8725 ± 0.0049
m1 = 0.113	0.8403 ± 0.0062
m1 = 0.1459	0.8228 ± 0.0069
m1 = 0.1775	0.8131 ± 0.0072
m1 = 0.2126	0.8046 ± 0.0076
m1 = 0.2558	0.794 ± 0.008
m1 = 0.3305	0.785 ± 0.0083

CC[N+](CC)(CC)CC.[Br-] [tetraethylammonium bromide] + O
Details	osmotic coefficient
m1 = 0.00966	0.9933 ± 0.001
m1 = 0.01943	0.9737 ± 0.0014
m1 = 0.03868	0.9492 ± 0.0021
m1 = 0.0491	0.9327 ± 0.0026
m1 = 0.05837	0.9256 ± 0.0029
m1 = 0.07077	0.916 ± 0.0033
m1 = 0.09678	0.8994 ± 0.0039
m1 = 0.1197	0.8851 ± 0.0045
m1 = 0.1561	0.869 ± 0.0051
m1 = 0.2146	0.85 ± 0.0058
m1 = 0.2799	0.8376 ± 0.0063
m1 = 0.3398	0.8275 ± 0.0067

C[N+](C)(C)C.[I-] [tetramethylammonium iodide] + O
Details	osmotic coefficient
m1 = 0.01012	0.9766 ± 0.0013
m1 = 0.02006	0.9573 ± 0.0018
m1 = 0.0301	0.9365 ± 0.0025
m1 = 0.04063	0.9245 ± 0.0029
m1 = 0.04966	0.9108 ± 0.0035
m1 = 0.05912	0.8995 ± 0.0039
m1 = 0.07116	0.883 ± 0.0045
m1 = 0.1026	0.8569 ± 0.0055
m1 = 0.1286	0.8396 ± 0.0062
m1 = 0.1527	0.8277 ± 0.0067
m1 = 0.1802	0.8188 ± 0.007
